Measured values published in patent US20180208563A1, “THERMOD[…] CRYSTAL MODIFICATION OF 2-CHLORO-3-(METHYLSULFANYL)-N-(1-METHYL-1H-TETRAZOL-5-YL)-4-(TRIFLUOROMETHYL)BENZAMIDE” (BAYER CROPSCIENCE AKTIENGESELLSCHAFT, priority 2015, published 2018).

Experiments:
[1] = Testing in practice of suspension formulations (crystal growth); format: physicochemical; conditions: suspension formulations with finely ground solid benzamide; spontaneously or over a longer period
Description: The benzamide known for example from WO 2012/028579 A1 (example No. 4-638 in table 4 therein) has herbicidal properties and is suitable for the production of crop protection compositions which can be employed for weed control. However, it has been shown that the benzamide preparable according to the disclosure of WO 2012/028579 A1 is not suitable for the production of user-friendly administration forms. User-friendly administration forms are, for example, suspension formulations in which the benzamide is present finely ground in solid form. […] The crystal growth can occur spontaneously or over a longer period and cannot be predicted.

[2] = Stability tests: storage of an oil dispersion; format: physicochemical; conditions: after several weeks of storage, compared to an oil dispersion of the benzamide prepared according to WO 2012/028579 A1

| SMILES | crystal growth, clumping and precipitation in suspension formulations [1] | signs of clumping and precipitation on storage [2] |
| --- | --- | --- |
| CSc1c(C(F)(F)F)ccc(C(=O)Nc2nnnn2C)c1Cl [2-chloro-3-(methylsulfanyl)-N-(1-methyl-1H-tetrazol-5-yl)-4-(trifluoromethyl)benzamide] | crystal growth in suspension formulations and consequently to clumping and precipitation |  |
| CSc1c(C(F)(F)F)ccc(C(=O)Nc2nnnn2C)c1Cl [crystal modification II, 2-chloro-3-(methylsulfanyl)-N-(1-methyl-1H-tetrazol-5-yl)-4-(trifluoromethyl)benzamide] |  | no signs of clumping and precipitation |
